Reference: paper PMC6009982, “Diaryl ethers with carboxymethoxyphenacyl motif as potent HIV-1 reverse transcriptase inhibitors with improved solubility” (Journal of Enzyme Inhibition and Medicinal Chemistry, 2017)
Converted amounts (≈) assume the structure as drawn. Read-outs that look alike come from different tables or passages of the source. Marks after values point to notes of the source that are not given here.

What was measured:
[1] = Aqueous solubility by weighing dried aliquots; assay type: physicochemical; conditions: ultrapure deionised water, room temperature, pH =7
Procedure: Substances were dissolved in ultrapure deionised water at room temperature up to concentrations of 50 g/L. Solutions were centrifuged and their aliquots were transferred into weighed glass vials (d = 0.01 mg). The samples were dried under reduced pressure and the vials were weighed again. The solubility was calculated from mass difference divided by sample volume.

HIV-1 RT = molecular target: T1, HIV-1 RT (Human immunodeficiency virus type 1 group M subtype B, UniProt P04585); experiment: HIV RT inhibitory activity, colorimetric Reverse Transcriptase Assay kit (Roche); assay type: biochemical
T1 construct: Because HIV-1 reverse transcriptase (RT) has a low fidelity; purchased Roche, Basel, Switzerland
Procedure: HIV RT inhibitory activity of the new compounds was measured using the colorimetric Reverse Transcriptase Assay kit (Roche, Basel, Switzerland). […] Averaged results from at least two measurements were used to obtain an inhibition curve. IC50 values were obtained by interpolating the curve using non-linear regression.

SupT1 cells = experiment: Cytotoxicity from cell numbers in non-infected SupT1 cultures; assay type: cell-based; conditions: concentration at which toxicity is observed in 10-fold titration series
Procedure: (§1) CD4^+ T cells were harvested from normal donors and cultured in Roswell Park Memorial Institute medium (RPMI) supplemented with 2 mM L-glutamine (Life Technologies, Merelbeke, Belgium), 10% (v/v) heat-inactivated foetal calf serum (Hyclone, Thermo Fisher Scientific, Waltham, MA), 100 U/mL penicillin and 100 µg/mL streptomycin (Life Technologies), 20 ng/mL interleukin-2 (IL-2; specific activity 10 U/ng, Peprotech, London, UK), and with 1 µg/mL phytohemagglutinin (PHA) mitogen (Thermo Fisher Scientific), 72 h prior to infection, as described earlier. SupT1 cells were maintained at maximum 500,000 cells/mL, in Iscove’s Modified Dulbecco’s Medium (IMDM) supplemented with 2 mM L-glutamine (Life Technologies) and 10% (v/v) heat-inactivated foetal calf serum (Hyclone, Thermo Fisher Scientific, Waltham, MA), as described earlier.
(§2) Lyophilised compound was dissolved in dimethyl sulfoxide to a concentration of 5 mM, and further diluted in cell culture medium (SupT1: IMDM and CD4^+ T cells: RPMI). Cells were incubated 2 h prior infection in appropriate medium as described above, now also supplemented with diluted compound. Subsequently, cells (SupT1: 50,000 per 96 well, CD4^+ T cells: 250,000 per 96 well) were infected with HIV (HIV NL4–3-GFP-I, an infectious virus expressing green fluorescent protein (GFP) from gfp-IRES-nef mRNA expressed from the nef locus, as described earlier. Medium was as described above, now also supplemented with diluted compound (For CD4^+ T cells, PHA was left out). Medium was refreshed after 24 h, keeping compound and supplement concentrations constant. After 72 h, cells were harvested, measured by flow cytometry for GFP expression and counted, using a MACSQuant flow cytometer (Miltenyi Biotec, Bergisch Gladbach, Germany). Infection rate measured by GFP expression was between 6 and 20%. Cell numbers were used to measure cytotoxicity (cell numbers in non-infected cultures supplemented with compound were compared to cell numbers obtained in parallel cultures without compound added: a reduction with more than 10% was considered to indicate cytotoxicity).
First, toxicity of the compounds was determined in SupT1 cells. Since even minor toxicity affects the support of viral replication by the cell, compounds should be active well below threshold toxic concentration (i.e. concentration at which toxicity is observed in 10-fold titration series).

[2] = test system: HIV NL4-3-GFP-I in SupT1 cells; experiment: Infection assay in SupT1 cells, GFP flow cytometry; assay type: cell-based, HIV-1; conditions: for Antiviral activity: SupT1 cells, at 10-fold lower concentration than threshold toxic concentration
Procedure: as §1, §2

[3] = ref Janssen et al.[15]; cited from earlier work
[4] = thermodynamic from solid, read-out: Solubility
[5] = HIV-1 RT, 2 ng enzyme, at least two measurements, read-out: IC50

Compound	Solubility [1, 4]	IC50 (HIV-1 RT; [5])	Threshold toxicity (SupT1 cells)	IC50 (HIV-1 RT)	Antiviral activity [2]	Solubility [1]	IC50 ([2]; Human immunodeficiency virus 1, NL43, SUP-T1, read-out: IC50 (infection rate), reference run in parallel)	Solubility [3]
N#Cc1cc(Cl)cc(Oc2cc(OCC(=O)c3ccc(OCC(=O)O)cc3)ccc2Cl)c1 [Compound 7a]	13.1 mg/mL (≈ 27.7 mM)	1.23 ± 0.05 µM	5 µM	–	–	–	–	–
O=C([O-])COc1ccc(C(=O)COc2ccc(Cl)c(Oc3cc(Cl)cc(Cl)c3)c2)cc1.[K+] [Compound 7b]	4.3 mg/mL	–	50 µM	6.75 ± 0.5 µM	+	–	–	–
N#Cc1cc(Cl)cc(Oc2cc(Cl)cc(OCC(=O)c3ccc(OCC(=O)[O-])cc3)c2)c1.[K+] [Compound 7c]	–	8.3 ± 1.3 µM	50 µM	–	–	>50.0 mg/mL	–	–
N#Cc1cc(Cl)cc(Oc2cccc(OCC(=O)c3ccc(OCC(=O)[O-])cc3)c2)c1.[K+] [Compound 7d]	–	9.78 ± 0.67 µM	50 µM	–	–	>50.0 mg/mL	–	–
Cc1cc(OCC(=O)[O-])ccc1C(=O)COc1ccc(Cl)c(Oc2cc(Cl)cc(C#N)c2)c1.[K+] [Compound 7f]	–	4.71 ± 0.43 µM	>50 µM	–	+	8.9 mg/mL	–	–
Cc1cc(C(=O)COc2ccc(Cl)c(Oc3cc(Cl)cc(C#N)c3)c2)ccc1OCC(=O)[O-].[K+] [Compound 7g]	–	0.65 ± 0.03 µM	50 µM	–	+	3.8 mg/mL	–	–
N#Cc1cc(Cl)cc(Oc2ccc(Cl)cc2OCC(=O)c2ccc(OCC(=O)O)cc2)c1 [Compound 8a]	> 50 mg/mL	23.4 ± 1.6 µM	50 µM	–	–	–	–	–
Cc1cc(OCC(=O)[O-])ccc1C(=O)COc1cc(Cl)ccc1Oc1cc(Cl)cc(C#N)c1.[K+] [Compound 8d]	–	4.7 ± 0.7 µM	50 µM	–	–	14.4 mg/mL	–	–
Cc1cc(C(=O)COc2cc(Cl)ccc2Oc2cc(Cl)cc(C#N)c2)ccc1OCC(=O)[O-].[K+] [Compound 8e]	–	3.07 ± 0.22 µM	50 µM	–	+	39.9 mg/mL	–	–
N#Cc1cc(Cl)cc(Oc2cc(Cl)ccc2OCC(=O)c2ccc(Oc3ccc(OCC(=O)[O-])cc3)cc2)c1.[K+] [Compound 8f]	–	1.27 ± 0.05 µM	5 µM	–	–	>50.0 mg/mL	–	–
Cc1ccnc2c1NC(=O)c1cccnc1N2C1CC1 [NVP, nevirapine, reference compound]	–	–	50 µM	–	+	–	0.04 µM	–
Cc1cc(/C=C/C#N)cc(C)c1Nc1ccnc(Nc2ccc(C#N)cc2)n1 [RPV, rilpivirine, reference compound]	–	0.32 ± 0.04 µM	0.5 µM	–	+	–	–	0.00002 ^b g/L
